Protocol: The solution of propylene glycol monomethyl ether acetate (PGMEA), propylene glycol monomethyl ether (PGME), or ethyl lactate (EL) with each compound described above was prepared, while changing the concentration. After the preparation, each solution was stirred, and then the concentration in which each acid generator was completely dissolved was measured.

Row | Solubility in EL | Solubility in PGME | Solubility in PGMEA | Compound
1 | 7 % by weight | >20 % by weight | 5 % by weight | CC(C)(C)c1ccc(-[s+]2c3ccccc3c3ccccc32)cc1 [Compound (b1-21)]
2 | >20 % by weight | >20 % by weight | 15 % by weight | CCC(C)(C)c1ccc(-[s+]2c3ccccc3c3ccccc32)cc1 [Compound (b1-24)]

From patent US20090317741A1, “COMPOUND, ACID GENERATOR, RESIST COMPOSITION AND METHOD OF FORMING RESIST PATTERN” (Tokyo Ohka Kogyo Co., Ltd., priority 2006, published 2009)
